Laboratory results as given in patent publication US4668677A, “4-phenylphthalazine derivatives, their preparation and their use as pharmaceuticals” (Mitsubishi Chemical Industries Limited, priority 1984, dated 1987).

Experiments:
[1] = tested on: blood platelets; experiment: Activity to inhibit the blood platelet adhesion (glass bead method); type: cell-based, rat (male Wistar-ST strain); conditions: Rattus norvegicus, read-out: Inhibitory rate of blood platelet adhesion
Description: As experimental animals, there were used male Wistar-ST strain rats of an average body weight of 250 g.
Blood samples were obained from carotid arteries by means of a cannule and immediately admixed with sodium citrate at a volume ratio of 1/10. The mixture was centrifuged at 200×g over 15 minutes to collect the supernatant (platelet-rich plasma: PRP). The PRP was then centrifuged at 2000×g over 15 minutes and the supernatant was removed to give blood platelet pellet.
To the resultant blood platelet pellet was added a 15 mM tris.HCl buffer solution with EDTA (pH 7.4) to resuspend blood platelets therein and then one applied centrifugation at 2000×g over 15 minutes and the supernatant was removed. The resultant washed blood platelets were added to a 0.3 mM tris.HCl buffer solution with CaCl2 (pH 7.4) to resuspend blood platelets therein, whereby there was prepared a blood platelet suspension adjusted to five hundred thousand platelets/μl. To 2 ml of the blood platelet suspension were added 2 μl of a methanolic solution of each test compound and incubation was effected for 15 minutes. Then blood platelet adhesion was determined according to a glass bead method by using a timing blood suction apparatus for determining the blood platelet adhesion.
The number of blood platelets was counted by means of a blood platelet counter.
Inhibitory rate of blood platelet adhesion was calculated according to the following equation: [formula] A: Blood platelet number in the blood platelet suspension passed through a control column
B: Blood platelet number in the blood platelet suspension passed through a bead-packing column

[2] = tested on: Thoracic aorta; experiment: Calcium antagonistic activity (relaxation of thoracic aorta); type: cell-based, rat (male Wistar strain); conditions: Rattus norvegicus, 10 mM CaCl2
Description: Thoracic aorta was removed from male Wistar strain rats with a body weight of 350 g to 450 g and then spiral-shaped pieces of aorta were prepared therefrom. […] Thereafter, samples were further stabilized in Krebs-Henseleit solution containing no CaCl2 over 1 hour and then in a 80 mM KCl nutritive liquid wherein NaCl was exchanged with an equimolar KCl (depolarized liquid) over a further one hour. Then, samples were washed with the depolarized liquid and loaded with a static tension of 1.0 g. When CaCl2 was added to the nutritive liquid so as to reach a final concentration of 10 mM, tension was produced in samples and, after 15-20 minutes from the addition of CaCl2, the maximum tension was obtained. At this point, test compounds were applied and relaxing activity of test compounds was evaluated. Tension was determined in equal dimension.
Relaxation rate was calculated according to the following equation: [formula] A: Maximum tension generated B: Generated tension retained after administration of test compound
All test compounds were given in the form of a solution in dimethyl sulfoxide at a dose of 0.1 ml, whereupon a final concentration of dimethyl sulfoxide itself was adjusted to 0.5 V/V %.

[3] = tested on: femoral artery; experiment: Action on blood flow volume in femoral artery; type: in vivo, rabbit (male New Zealand White)
Description: Male New Zealand White rabbits (body weight of 2.8 Kg to 3.5 Kg) were used and anesthetized with pentobarbital sodium. Blood flow volumes in the carotid artery and femoral artery were measured and recorded via a non-blood observing type of a probe for measuring blood flow volume. Also, blood pressure in femoral artery was simultaneously measured and recorded with measurement of blood flow.
(§1) The compound of this invention was dissolved in an aqueous solution containing 1% tartaric acid and 1% dimethylacetamide, while papaverine hydrochloride dissolved in 0.9% physiological saline. These test compounds were intravenously given through a residual polyethylene tube within femoral vein.

[4] = tested on: candate nucleus; experiment: Activity to increase topical cerebral blood flow, candate nucleus (heat clearance method); type: in vivo, rabbit (male New Zealand White); conditions: change in blood flow expressed in terms of voltage
Description: as §1
(§2) Physiol. Scand., 67, 1 (1966); "Kokyu to Junkan" (in Japanese), 15, 435 (1967); the Journal of the Pharmacological Society of Japan, 71, 709 (1975)]. Simultaneously, blood pressure in femoral artery was also determined. Preparation and administration of test compounds were carried out in the same manner as in the above item (6).

[5] = tested on: cerebral cortex; experiment: Activity to increase topical cerebral blood flow, cerebral cortex (heat clearance method); type: in vivo, rabbit (male New Zealand White); conditions: change in blood flow expressed in terms of voltage
Description: as §1, §2

[6] = tested on: femoral artery; experiment: Blood pressure in femoral artery, topical cerebral blood flow test; type: in vivo, rabbit (male New Zealand White)
Description: as §1, §2

[7] = tested on: coronary artery; experiment: Activity to increase blood flow volume in coronary artery; type: in vivo, dog (mongrel adult dog)
Description: as §1
(§3) A mongrel adult dog was anesthetized with pentobarbital sodium and then underwent thoracotomy under artificial respiration. After cardiac membrane was removed, the origin of branches in left coronary artery was removed from its peripheral tissues and blood flow volume of coronary artery was measured via the probe for determining blood flow which was attached to said origin. Simultaneously, blood pressure in femoral artery was measured. Preparation and administration of test compounds were carried out in the same manner as in the above item (6).

[8] = tested on: femoral artery; experiment: Blood pressure in femoral artery, coronary blood flow test; type: in vivo, dog (mongrel adult dog)
Description: as §1, §3

SMILES | Blood flow volume in femoral artery, A: Before administration ([3]; 0.01 mg/Kg i.v.) [mL/min] | Blood flow volume in femoral artery, B: After administration ([3]; 0.01 mg/Kg i.v.) [mL/min] | Blood flow volume in femoral artery, C: Increase degree ([3]; 0.01 mg/kg i.v.) [mL/min] | Blood flow volume in femoral artery, D: Increase rate ([3]; 0.01 mg/kg i.v.) [%] | Blood flow volume in femoral artery, A: Before administration ([3]; 0.05 mg/Kg i.v.) [mL/min] | Blood flow volume in femoral artery, B: After administration ([3]; 0.05 mg/Kg i.v.) [mL/min] | Blood flow volume in femoral artery, C: Increase degree ([3]; 0.05 mg/kg i.v.) [mL/min] | Blood flow volume in femoral artery, D: Increase rate ([3]; 0.05 mg/kg i.v.) [%] | Blood flow volume in femoral artery, A: Before administration ([3]; 0.1 mg/Kg i.v.) [mL/min] | Blood flow volume in femoral artery, B: After administration ([3]; 0.1 mg/Kg i.v.) [mL/min] | Blood flow volume in femoral artery, C: Increase degree ([3]; 0.1 mg/kg i.v.) [mL/min] | Blood flow volume in femoral artery, D: Increase rate ([3]; 0.1 mg/kg i.v.) [%] | Blood flow volume in femoral artery, A: Before administration ([3]; 0.5 mg/Kg i.v.) [mL/min] | Blood flow volume in femoral artery, B: After administration ([3]; 0.5 mg/Kg i.v.) [mL/min] | Blood flow volume in femoral artery, C: Increase degree ([3]; 0.5 mg/kg i.v.) [mL/min] | Blood flow volume in femoral artery, D: Increase rate ([3]; 0.5 mg/kg i.v.) [%] | also measured
CC(C)(C)CNc1nnc(-c2ccccc2)c2ccccc12 [Compound 1, 1-neopentylamino-4-phenylphthalazine] | 19.0 | 22.1 | 3.1 | 9.9 | 18.5 | 24.3 | 5.8 | 28.2 | 18.5 | 27.8 | 9.3 | 65.2 | 19.5 | 28.2 | 8.7 | 55.3 | inhibition at 300 µM ([1]; 3·10^-4 M): 50.2%; inhibition at 30 µM ([1]; 3·10^-5 M): 40.8%; inhibition at 3 µM ([1]; 3·10^-6 M): 12.5%; inhibition at 0.3 µM ([1]; 3·10^-7 M): 8.2%; inhibition at 3 µM ([2]; final concentration 3 μM): 8.5%; inhibition at 10 µM ([2]; final concentration 10 μM): 30%; Increase in topical blood flow volume, Candate nucleus ([4]; 0.3 mg/Kg i.v.): 0.63 ± 0.08 Δ μV; Increase in topical blood flow volume, Candate nucleus ([4]; 1 mg/Kg i.v.): 0.85 ± 0.25 Δ μV; Increase in topical blood flow volume, Cerebral cortex ([5]; 0.3 mg/Kg i.v.): 1.03 ± 0.12 Δ μV; Increase in topical blood flow volume, Cerebral cortex ([5]; 1 mg/Kg i.v.): 2.05 ± 0.29 Δ μV; Lowering of blood pressure in femoral artery ([6]; 0.3 mg/Kg i.v.): 18.2 ± 0.98%; Lowering of blood pressure in femoral artery ([6]; 1 mg/Kg i.v.): 30.8 ± 3.2%; Blood flow volume in coronery artery, After administration ([7]; 0.1 mg/Kg): 28.8 mL/min; Blood flow volume in coronery artery, Before administration ([7]; 0.1 mg/Kg): 18.8 mL/min; Blood flow volume in coronery artery, Increase rate ([7]; 0.1 mg/Kg): 53.2%; Blood flow volume in coronery artery, After administration ([7]; 0.3 mg/Kg): 37.5 mL/min; Blood flow volume in coronery artery, Before administration ([7]; 0.3 mg/Kg): 18.8 mL/min; Blood flow volume in coronery artery, Increase rate ([7]; 0.3 mg/Kg): 99.5%; Lowering of blood pressure in femoral artery ([8]; 0.1 mg/Kg): 17.6%; Lowering of blood pressure in femoral artery ([8]; 0.3 mg/Kg): 29.4%
CCC(CC)Nc1nnc(-c2ccccc2)c2ccccc12 [Compound 2, 1-(1-ethylpropylamino)-4-phenylphthalazine] | 20.9 | 26.5 | 5.6 | 28.5 | 18.8 | 20.3 | 3.3 | 13.4 | 15.9 | 12.5 | 3.4 | 23.4 | 19.5 | 13.8 | 5.7 | 36.7 | 
